Experiments:
[1] = test system: patients with reduced DPD activity; details: patients with germline DPYD variants / reduced DPD activity, 5FU-related toxicity; cited from earlier work
[2] = test system: colorectal cancer patients; assay: QUASAR 2 clinical trial: cardiovascular related adverse events under capecitabine; type: in vivo, human; details: stage II/III colorectal cancer patients administered capecitabine (alone or plus bevacizumab), most common events cardiac chest pain and angina
Description: QUASAR 2, a randomised controlled trial of capecitabine+bevacizumab has been described previously (Kerr, R. S., et al. Lancet Oncol, 2016. 17(11):1543-1557; and Rosmarin, D., et al. Gut, 2015. 64(1):111-20). Briefly, participants were stage II/stage III colorectal cancer patients with performance status 0/1 and normal renal function. Patients were randomly assigned (1:1) to receive eight 3-week cycles of oral capecitabine alone (1250 mg/m^2 twice daily for 14 days followed by a break for 7 days) or the same regimen of oral capecitabine plus 16 cycles of 7.5 mg/kg bevacizumab by intravenous infusion over 90 min on day 1 of each cycle. All patients consented for use of biological samples and medical records in research. Cardiovascular toxicity was confirmed by two independent clinicians reviewing patient case report forms.
3% of colorectal cancer patients administered with capecitabine as part of the QUASAR 2 clinical trial experienced cardiovascular related adverse events. The most commonly described events were cardiac chest pain and angina. The inventors performed a genome wide association study to identify genetic markers associated with cardiovascular adverse events under an additive genetic model. Given the rarity of cardiovascular toxicity, variants with a minor allele frequency (MAF)<10% were filtered out. […]

## O=c1[nH]cc(F)c(=O)[nH]1 [5FU, 5-flurouracil]
[1]
  patients with reduced DPD activity who experience cardiotoxicity: 2-5%

## CCCCCOC(=O)Nc1nc(=O)n(C2OC(C)C(O)C2O)cc1F (centres unmarked) [capecitabine, pentyl [1-(3,4-dihydroxy-5-methyltetrahydrofuran-2-yl)-5-fluoro-2-oxo-1H-pyrimidin-4-yl]carbamate]
[2]
  patients who experienced cardiovascular related adverse events: 3%

Reference: patent publication US20260176700A1, “TOXICITY MARKER FOR 5-FLUOROURACIL” (Oxford University Innovation Limited, priority 2022, published 2026)
